Experimental data as given in ChEMBL document CHEMBL4627274, “Optimized plant compound with potent anti-biofilm activity across gram-negative species” (Bioorg Med Chem, 2020).

What was measured:
Format in all cases: functional
Escherichia coli [1] = test: Antibiofilm activity against Escherichia coli UTI89 incubated for 2 days at 23 degC followed by 1 day incubation at RT
Escherichia coli [2] = test: Inhibition of swarming motility of Escherichia coli PY31 at 16 ug/mL incubated for 16 to 20 hrs relative to control
Pseudomonas aeruginosa [3] = test: Inhibition of swarming motility of Pseudomonas aeruginosa HONKR at 16 ug/mL incubated for 16 to 20 hrs relative to control
Salmonella enterica = test: Inhibition of swarming motility of Salmonella enterica clinical isolates incubated for 16 to 20 hrs
Burkholderia cepacia = test: Inhibition of swarming motility of Burkholderia cepacia clinical isolates incubated for 16 to 20 hrs
Escherichia coli [4] = test: Inhibition of swarming motility of Escherichia coli clinical isolates incubated for 16 to 20 hrs
Pseudomonas aeruginosa [5] = test: Inhibition of swarming motility of Pseudomonas aeruginosa clinical isolates incubated for 16 to 20 hrs

| Structure (SMILES) | MBIC50 (Escherichia coli [1]) | inhibition at 16 µg/mL (Escherichia coli [2]) | inhibition at 16 µg/mL (Pseudomonas aeruginosa [3]) | also measured |
| --- | --- | --- | --- | --- |
| CC1(C)CC[C@]2(C(=O)O)CC[C@]3(C)C(=CC[C@@H]4[C@@]5(C)C[C@@H](C6=NCCN6)[C@H](O)C(C)(C)[C@@H]5CC[C@]43C)[C@@H]2C1 | >=32 ug ml-1 | > 90% | < 20% |  |
| C[C@H]1[C@H](C)CC[C@]2(C(=O)O)CC[C@]3(C)C(=CC[C@@H]4[C@@]5(C)C[C@@H](O)[C@H](O)[C@@](C)(CO)[C@@H]5CC[C@]43C)[C@H]12 [ASIATIC ACID] |  |  | 70% |  |
| CNC(=N)[C@@H]1C[C@]2(C)[C@H]3CC=C4[C@@H]5CC(C)(C)CC[C@]5(C(=O)O)CC[C@@]4(C)[C@]3(C)CC[C@H]2C(C)(C)[C@H]1O | >=32 ug ml-1 | 30% | < 20% |  |
| CCCN(C)C(=O)[C@@H]1C[C@]2(C)[C@H]3CC=C4[C@@H]5CC(C)(C)CC[C@]5(C(=O)O)CC[C@@]4(C)[C@]3(C)CC[C@H]2C(C)(C)[C@H]1O | 4 µg/mL | 50% | < 20% |  |
| CCN(C[C@@H]1C[C@]2(C)[C@H]3CC=C4[C@@H]5CC(C)(C)CC[C@]5(C(=O)O)CC[C@@]4(C)[C@]3(C)CC[C@H]2C(C)(C)[C@H]1O)C(C)=O | 4 µg/mL | 30% | < 20% |  |
| COC(=O)[C@]12CCC(C)(C)C[C@H]1C1=CC[C@@H]3[C@@]4(C)CC[C@H](O)C(C)(C)[C@@H]4CC[C@@]3(C)[C@]1(C)CC2 [METHYL OLEANOLATE] |  |  | 30% |  |
| CN(C)CCNC(=O)[C@@H]1C[C@]2(C)[C@H]3CC=C4[C@@H]5CC(C)(C)CC[C@]5(C(=O)O)CC[C@@]4(C)[C@]3(C)CC[C@H]2C(C)(C)[C@H]1O | 4 µg/mL | 30% | < 20% |  |
| C[C@H]1[C@H](C)CC[C@]2(C(=O)O)CC[C@]3(C)C(=CC[C@@H]4[C@@]5(C)C[C@@H](O)[C@@H](O)C(C)(C)[C@@H]5CC[C@]43C)[C@H]12 [PYGENIC ACID A] |  |  | > 90% |  |
| C[C@H]1[C@H](C)CC[C@]2(C(=O)O)CC[C@]3(C)C(=CC[C@@H]4[C@@]5(C)C[C@@H](O)[C@@H](O)[C@](C)(CO)[C@@H]5CC[C@]43C)[C@H]12 |  |  | 90% |  |
| CN1C[C@@H]2C[C@]3(C)[C@H]4CC=C5[C@@H]6CC(C)(C)CC[C@]6(C(=O)O)CC[C@@]5(C)[C@]4(C)CC[C@H]3C(C)(C)[C@H]2OC1=O | >=32 ug ml-1 | < 20% | < 20% |  |
| CN1CCN=C1[C@@H]1C[C@]2(C)[C@H]3CC=C4[C@@H]5CC(C)(C)CC[C@]5(C(=O)O)CC[C@@]4(C)[C@]3(C)CC[C@H]2C(C)(C)[C@H]1O | >=32 ug ml-1 | < 20% | > 20% |  |
| C[C@H]1[C@H](C)CC[C@]2(C(=O)O)CC[C@]3(C)C(=CC[C@@H]4[C@@]5(C)[C@H](O)[C@@H](O)[C@@H](O)[C@](C)(CO)[C@@H]5CC[C@]43C)[C@H]12 |  |  | 80% |  |
| CN(C)C[C@@H]1C[C@]2(C)[C@H]3CC=C4[C@@H]5CC(C)(C)CC[C@]5(C(=O)O)CC[C@@]4(C)[C@]3(C)CC[C@H]2C(C)(C)[C@H]1O | >=32 ug ml-1 | 70% | < 20% |  |
| CN(C)C(=O)[C@@H]1C[C@]2(C)[C@H]3CC=C4[C@@H]5CC(C)(C)CC[C@]5(C(=O)O)CC[C@@]4(C)[C@]3(C)CC[C@H]2C(C)(C)[C@H]1O | 4 µg/mL | < 20% | < 20% |  |
| Cn1cc2c(n1)C(C)(C)[C@@H]1CC[C@]3(C)[C@H](CC=C4[C@@H]5CC(C)(C)CC[C@]5(C(=O)O)CC[C@]43C)[C@@]1(C)C2 | 8 µg/mL | 80% | > 90% | INH (Salmonella enterica): >16 µg/mL; INH (Burkholderia cepacia): 1 µg/mL; INH (Escherichia coli [4]): >16 µg/mL; INH (Pseudomonas aeruginosa [5]): 16 µg/mL |
| C[C@H]1[C@H](C)CC[C@]2(C(=O)O)CC[C@]3(C)C(=CC[C@@H]4[C@@]5(C)CC[C@H](O)C(C)(C)[C@@H]5CC[C@]43C)[C@H]12 [URSOLIC ACID] |  |  | > 90% |  |
| CC1(C)CC[C@]2(C(=O)O)CC[C@]3(C)C(=CC[C@@H]4[C@@]5(C)C[C@@H](C(=O)NC6CC6)[C@H](O)C(C)(C)[C@@H]5CC[C@]43C)[C@@H]2C1 | 4 µg/mL | 70% | < 20% |  |
| C[C@H]1[C@H](C)CC[C@]2(C(=O)O)CC[C@]3(C)C(=CC[C@@H]4[C@@]5(C)C[C@@H](O)[C@H](O)[C@@](C)(CO)[C@@H]5[C@H](O)C[C@]43C)[C@H]12 [MADECASSIC ACID] |  |  | 90% |  |
